According to BindingDB's records for PubMed 11454918:
Counter-ions that a name gives are not always drawn.

Columns and labels:
[1] = molecular target: T1, 5-hydroxytryptamine receptor 2C (Homo sapiens, UniProt P28335)
T1 sequence (P28335 whole entry): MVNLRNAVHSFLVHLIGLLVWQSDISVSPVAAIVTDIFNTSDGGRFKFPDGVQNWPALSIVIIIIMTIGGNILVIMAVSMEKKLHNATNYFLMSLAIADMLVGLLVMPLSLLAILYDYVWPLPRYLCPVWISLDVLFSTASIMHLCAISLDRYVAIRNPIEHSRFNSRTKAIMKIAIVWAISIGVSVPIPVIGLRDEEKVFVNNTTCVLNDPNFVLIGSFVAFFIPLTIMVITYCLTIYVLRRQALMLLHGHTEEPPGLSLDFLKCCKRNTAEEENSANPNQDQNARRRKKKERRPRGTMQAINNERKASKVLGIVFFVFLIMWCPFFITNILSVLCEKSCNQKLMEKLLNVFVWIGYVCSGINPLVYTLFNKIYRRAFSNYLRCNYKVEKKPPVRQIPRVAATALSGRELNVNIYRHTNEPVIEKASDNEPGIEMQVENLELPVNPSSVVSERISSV

[2] = molecular target: T2, 5-hydroxytryptamine receptor 1A (Homo sapiens, UniProt P08908)
T2 sequence (P08908 whole entry): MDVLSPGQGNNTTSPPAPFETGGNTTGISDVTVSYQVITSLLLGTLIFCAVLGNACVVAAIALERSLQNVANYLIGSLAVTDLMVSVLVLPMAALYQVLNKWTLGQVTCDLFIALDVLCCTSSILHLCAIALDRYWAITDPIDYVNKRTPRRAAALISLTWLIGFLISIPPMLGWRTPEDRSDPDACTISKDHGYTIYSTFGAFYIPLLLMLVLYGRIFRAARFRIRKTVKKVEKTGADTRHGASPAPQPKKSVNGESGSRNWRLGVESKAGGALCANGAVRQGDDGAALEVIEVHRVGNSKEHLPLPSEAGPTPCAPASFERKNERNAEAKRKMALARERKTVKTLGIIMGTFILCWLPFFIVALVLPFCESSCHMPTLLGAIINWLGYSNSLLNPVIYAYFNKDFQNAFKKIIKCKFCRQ

[3] = molecular target: 5-hydroxytryptamine receptor 1D (Homo sapiens, UniProt P28221)
[4] = molecular target: 5-hydroxytryptamine receptor 1B (Homo sapiens, UniProt P28222)
[5] = molecular target: T3, Alpha-1A adrenergic receptor (Homo sapiens, UniProt P35348)
T3 sequence (P35348 whole entry): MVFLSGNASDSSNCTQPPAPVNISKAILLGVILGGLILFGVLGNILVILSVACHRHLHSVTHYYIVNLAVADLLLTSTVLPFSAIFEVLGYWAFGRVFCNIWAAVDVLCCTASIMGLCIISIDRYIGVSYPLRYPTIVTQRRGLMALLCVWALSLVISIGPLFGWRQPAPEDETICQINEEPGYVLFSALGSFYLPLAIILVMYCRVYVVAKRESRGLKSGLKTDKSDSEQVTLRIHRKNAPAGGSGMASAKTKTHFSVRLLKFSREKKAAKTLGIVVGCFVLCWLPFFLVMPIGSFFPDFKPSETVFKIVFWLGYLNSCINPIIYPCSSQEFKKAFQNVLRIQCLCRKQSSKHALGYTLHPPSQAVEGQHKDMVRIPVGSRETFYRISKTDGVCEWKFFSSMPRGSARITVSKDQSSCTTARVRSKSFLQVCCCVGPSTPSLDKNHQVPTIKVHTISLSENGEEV

[6] = molecular target: Sodium-dependent dopamine transporter (Rattus norvegicus, UniProt P23977)
[7] = molecular target: T4, Alpha-1A adrenergic receptor (Rattus norvegicus, UniProt P43140)
T4 sequence (P43140 whole entry): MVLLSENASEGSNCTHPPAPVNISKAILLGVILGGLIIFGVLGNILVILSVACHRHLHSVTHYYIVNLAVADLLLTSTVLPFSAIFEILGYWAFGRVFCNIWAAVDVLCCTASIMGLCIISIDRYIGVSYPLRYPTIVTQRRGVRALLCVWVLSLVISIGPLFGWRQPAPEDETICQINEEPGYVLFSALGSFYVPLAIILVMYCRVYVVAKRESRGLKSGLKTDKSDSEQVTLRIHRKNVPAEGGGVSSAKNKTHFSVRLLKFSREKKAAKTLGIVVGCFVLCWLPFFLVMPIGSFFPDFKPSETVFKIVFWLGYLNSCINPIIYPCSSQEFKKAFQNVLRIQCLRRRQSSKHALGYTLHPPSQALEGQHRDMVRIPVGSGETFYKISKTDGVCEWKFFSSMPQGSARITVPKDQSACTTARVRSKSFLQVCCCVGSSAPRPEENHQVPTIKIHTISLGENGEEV

[8] = molecular target: T5, Alpha-2C adrenergic receptor (Rattus norvegicus, UniProt P22086)
T5 sequence (P22086 whole entry): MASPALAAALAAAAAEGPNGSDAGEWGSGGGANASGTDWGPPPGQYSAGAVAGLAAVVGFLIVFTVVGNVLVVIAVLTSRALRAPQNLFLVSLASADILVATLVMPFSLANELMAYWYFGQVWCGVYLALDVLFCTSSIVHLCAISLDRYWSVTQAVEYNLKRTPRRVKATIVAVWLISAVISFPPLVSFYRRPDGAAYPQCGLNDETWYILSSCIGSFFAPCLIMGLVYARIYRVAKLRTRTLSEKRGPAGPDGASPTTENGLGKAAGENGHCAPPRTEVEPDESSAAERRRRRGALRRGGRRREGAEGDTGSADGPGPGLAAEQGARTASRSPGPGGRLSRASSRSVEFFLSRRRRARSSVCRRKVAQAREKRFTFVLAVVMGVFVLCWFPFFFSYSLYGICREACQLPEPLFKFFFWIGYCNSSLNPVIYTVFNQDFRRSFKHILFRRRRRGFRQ

D(2) dopamine receptor = D(2) dopamine receptor (Homo sapiens, UniProt P14416)
[9] = molecular target: Sodium-dependent dopamine transporter (Homo sapiens, UniProt Q01959)
[10] = molecular target: Norepinephrine transporter (Rattus norvegicus, UniProt Q9JIA2)
[11] = molecular target: Sodium-dependent serotonin transporter (Rattus norvegicus, UniProt P31652)
[12] = molecular target: Sodium-dependent noradrenaline transporter (Homo sapiens, UniProt P23975)
[13] = molecular target: T6, Alpha-2A adrenergic receptor (Homo sapiens, UniProt P08913)
T6 sequence (P08913 whole entry): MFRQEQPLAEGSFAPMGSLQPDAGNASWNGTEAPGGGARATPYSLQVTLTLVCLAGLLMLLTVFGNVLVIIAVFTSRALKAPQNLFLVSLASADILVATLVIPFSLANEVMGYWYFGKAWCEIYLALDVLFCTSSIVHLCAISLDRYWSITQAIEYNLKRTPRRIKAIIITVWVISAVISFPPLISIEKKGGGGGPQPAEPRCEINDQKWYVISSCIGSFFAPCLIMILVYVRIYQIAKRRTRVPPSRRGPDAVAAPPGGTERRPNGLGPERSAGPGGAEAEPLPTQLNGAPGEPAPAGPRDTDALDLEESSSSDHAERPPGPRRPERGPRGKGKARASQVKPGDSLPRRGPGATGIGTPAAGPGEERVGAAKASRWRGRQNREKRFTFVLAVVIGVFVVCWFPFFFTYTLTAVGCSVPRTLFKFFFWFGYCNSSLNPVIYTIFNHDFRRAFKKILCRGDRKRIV

5-hydroxytryptamine receptor 1B, sequence (P28222 whole entry): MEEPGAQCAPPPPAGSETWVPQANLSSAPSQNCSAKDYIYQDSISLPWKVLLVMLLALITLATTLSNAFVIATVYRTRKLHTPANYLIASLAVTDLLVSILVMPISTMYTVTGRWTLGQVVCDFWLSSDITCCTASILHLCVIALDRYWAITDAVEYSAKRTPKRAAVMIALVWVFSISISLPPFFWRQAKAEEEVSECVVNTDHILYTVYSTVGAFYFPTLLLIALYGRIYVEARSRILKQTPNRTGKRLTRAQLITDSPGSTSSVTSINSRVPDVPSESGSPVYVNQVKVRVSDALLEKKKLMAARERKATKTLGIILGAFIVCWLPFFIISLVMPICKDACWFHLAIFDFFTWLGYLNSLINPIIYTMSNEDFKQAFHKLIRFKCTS
D(2) dopamine receptor, sequence (P14416 whole entry): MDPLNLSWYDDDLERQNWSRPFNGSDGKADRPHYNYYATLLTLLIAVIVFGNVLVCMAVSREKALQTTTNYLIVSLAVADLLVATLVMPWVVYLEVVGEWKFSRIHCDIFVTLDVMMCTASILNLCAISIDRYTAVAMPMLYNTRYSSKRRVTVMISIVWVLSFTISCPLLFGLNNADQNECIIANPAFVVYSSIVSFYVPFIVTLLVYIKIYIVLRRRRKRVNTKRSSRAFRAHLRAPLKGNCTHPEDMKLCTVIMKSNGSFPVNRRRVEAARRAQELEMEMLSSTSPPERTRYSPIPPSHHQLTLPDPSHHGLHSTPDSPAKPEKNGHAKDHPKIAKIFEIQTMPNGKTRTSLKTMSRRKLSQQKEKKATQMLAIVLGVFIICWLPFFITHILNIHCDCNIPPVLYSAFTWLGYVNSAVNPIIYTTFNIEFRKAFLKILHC
5-hydroxytryptamine receptor 1D, sequence (P28221 whole entry): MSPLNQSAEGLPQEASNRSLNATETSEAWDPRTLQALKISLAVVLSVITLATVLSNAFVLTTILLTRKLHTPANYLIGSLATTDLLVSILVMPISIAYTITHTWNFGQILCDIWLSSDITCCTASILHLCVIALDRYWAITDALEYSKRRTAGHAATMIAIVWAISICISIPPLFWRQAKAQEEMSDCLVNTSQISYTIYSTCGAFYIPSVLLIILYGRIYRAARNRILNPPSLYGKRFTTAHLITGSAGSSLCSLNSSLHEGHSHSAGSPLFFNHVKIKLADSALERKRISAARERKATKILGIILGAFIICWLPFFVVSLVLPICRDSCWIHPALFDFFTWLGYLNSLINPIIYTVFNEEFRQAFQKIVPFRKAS
Sodium-dependent dopamine transporter (Rattus norvegicus, UniProt P23977), sequence (P23977 whole entry): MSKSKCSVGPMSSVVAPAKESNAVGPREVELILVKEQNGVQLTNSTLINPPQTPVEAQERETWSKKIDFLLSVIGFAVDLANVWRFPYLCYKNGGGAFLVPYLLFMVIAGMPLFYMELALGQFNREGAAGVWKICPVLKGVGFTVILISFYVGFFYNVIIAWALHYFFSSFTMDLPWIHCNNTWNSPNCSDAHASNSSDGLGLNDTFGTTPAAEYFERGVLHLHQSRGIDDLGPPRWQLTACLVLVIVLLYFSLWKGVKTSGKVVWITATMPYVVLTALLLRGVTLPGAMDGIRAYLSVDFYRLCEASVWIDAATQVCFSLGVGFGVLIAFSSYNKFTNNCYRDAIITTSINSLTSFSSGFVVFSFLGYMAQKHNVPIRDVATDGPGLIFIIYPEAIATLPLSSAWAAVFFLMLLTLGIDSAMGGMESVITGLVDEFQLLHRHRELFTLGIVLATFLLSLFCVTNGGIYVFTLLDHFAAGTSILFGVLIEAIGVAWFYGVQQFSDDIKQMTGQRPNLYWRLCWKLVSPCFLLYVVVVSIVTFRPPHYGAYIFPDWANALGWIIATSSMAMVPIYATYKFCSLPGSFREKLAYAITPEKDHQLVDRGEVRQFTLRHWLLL
Sodium-dependent dopamine transporter (Homo sapiens, UniProt Q01959), sequence (Q01959 whole entry): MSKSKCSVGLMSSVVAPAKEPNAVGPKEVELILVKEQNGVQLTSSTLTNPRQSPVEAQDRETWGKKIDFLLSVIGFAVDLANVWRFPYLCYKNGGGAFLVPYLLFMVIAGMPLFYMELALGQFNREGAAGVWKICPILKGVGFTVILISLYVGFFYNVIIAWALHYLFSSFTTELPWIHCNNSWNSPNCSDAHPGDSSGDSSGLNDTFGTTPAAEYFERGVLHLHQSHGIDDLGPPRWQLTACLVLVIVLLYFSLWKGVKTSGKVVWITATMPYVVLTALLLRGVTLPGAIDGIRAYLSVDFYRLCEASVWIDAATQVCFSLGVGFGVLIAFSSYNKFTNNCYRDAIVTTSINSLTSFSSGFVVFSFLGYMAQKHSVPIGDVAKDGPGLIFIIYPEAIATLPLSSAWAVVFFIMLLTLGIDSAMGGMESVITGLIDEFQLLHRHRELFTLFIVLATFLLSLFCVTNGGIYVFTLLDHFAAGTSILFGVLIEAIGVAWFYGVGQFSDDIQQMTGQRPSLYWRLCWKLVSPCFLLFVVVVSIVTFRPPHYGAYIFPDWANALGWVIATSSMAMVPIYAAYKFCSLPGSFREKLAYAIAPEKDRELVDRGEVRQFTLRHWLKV
Sodium-dependent serotonin transporter, sequence (P31652 whole entry): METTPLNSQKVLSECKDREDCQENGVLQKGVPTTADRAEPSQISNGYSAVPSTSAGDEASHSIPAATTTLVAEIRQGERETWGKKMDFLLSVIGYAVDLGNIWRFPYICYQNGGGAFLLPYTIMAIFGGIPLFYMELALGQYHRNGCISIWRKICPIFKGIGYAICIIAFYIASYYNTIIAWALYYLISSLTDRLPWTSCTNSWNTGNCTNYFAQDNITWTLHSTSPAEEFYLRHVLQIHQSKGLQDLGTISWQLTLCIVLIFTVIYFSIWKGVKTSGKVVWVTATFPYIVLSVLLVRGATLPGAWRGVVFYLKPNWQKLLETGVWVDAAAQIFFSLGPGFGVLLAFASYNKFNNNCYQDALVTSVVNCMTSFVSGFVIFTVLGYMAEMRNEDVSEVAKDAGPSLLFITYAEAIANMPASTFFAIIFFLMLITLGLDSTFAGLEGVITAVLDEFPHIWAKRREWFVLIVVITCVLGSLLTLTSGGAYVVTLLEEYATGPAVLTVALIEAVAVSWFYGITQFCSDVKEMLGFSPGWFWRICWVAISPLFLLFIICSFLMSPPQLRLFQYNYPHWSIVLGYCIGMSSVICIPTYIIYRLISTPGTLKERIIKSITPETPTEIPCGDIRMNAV
Sodium-dependent noradrenaline transporter, sequence (P23975 whole entry): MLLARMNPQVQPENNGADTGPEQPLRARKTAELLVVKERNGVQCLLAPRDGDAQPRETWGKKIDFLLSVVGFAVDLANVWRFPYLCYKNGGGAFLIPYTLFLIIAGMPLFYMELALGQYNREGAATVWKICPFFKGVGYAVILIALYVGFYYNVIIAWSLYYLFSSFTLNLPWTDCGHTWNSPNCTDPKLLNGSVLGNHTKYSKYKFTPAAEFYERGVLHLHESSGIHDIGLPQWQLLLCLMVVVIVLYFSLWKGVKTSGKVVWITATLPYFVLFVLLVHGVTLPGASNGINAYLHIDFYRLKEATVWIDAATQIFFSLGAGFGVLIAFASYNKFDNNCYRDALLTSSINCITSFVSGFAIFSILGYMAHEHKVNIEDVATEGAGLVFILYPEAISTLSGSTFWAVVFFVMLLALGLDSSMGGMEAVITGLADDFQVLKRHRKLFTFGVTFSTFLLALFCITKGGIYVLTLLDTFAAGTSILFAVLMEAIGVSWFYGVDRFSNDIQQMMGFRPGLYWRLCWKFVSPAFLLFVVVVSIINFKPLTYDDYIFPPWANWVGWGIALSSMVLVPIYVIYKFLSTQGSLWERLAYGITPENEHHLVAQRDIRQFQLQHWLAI

SMILES | Ki [1] [µM] | Ki [2] [µM] | Ki [3] [µM] | Ki [4] [µM] | Ki [5] [µM] | Ki [6] [µM] | Ki [7] [µM] | Ki [8] [µM] | Ki (D(2) dopamine receptor) [µM] | Ki [9] [µM] | Ki [10] [µM] | Ki [11] [µM] | Ki [12] [µM] | Ki [13] [µM]
COc1ccc2c(c1)C(CN(C)C)(C1(O)CCCCC1)C2 (configuration not stated) [S33005] | > 10 | > 10 | > 10 | > 10 | > 10 | > 10 | > 10 | > 10 | > 10 | > 10 | 0.178 | 0.00195 | 1.51 | > 10
CN(C)CCCN1c2ccccc2CCc2ccc(Cl)cc21 [CLOMIPRAMINE HYDROCHLORIDE] | 0.0646 | > 10 | > 10 | > 10 | 0.0032 | 1.23 |  | > 10 | 0.0776 | 3.02 |  |  |  | 0.525
CN(C)CCCC1(c2ccc(F)cc2)OCc2cc(C#N)ccc21 (configuration not stated) |  | > 10 | > 10 | > 10 |  |  | > 10 | > 10 |  |  |  |  |  | > 10
COc1ccc(C(CN(C)C)C2(O)CCCCC2)cc1 (configuration not stated) [NSC_62923] | > 10 | > 10 | > 10 |  | > 10 |  |  | > 10 | > 10 |  |  |  |  | > 10
